Here are results for 1 compound from US5399487A, “6-peptidylamino-1-naphthalenesulfonamides useful as fluorogenic proteolytic enzyme substrates” (Haematologic Technologies, Inc., priority 1993, dated 1995).

One may read the Km as the substrate concentration at which the rate is half of its maximum.

What all share (experiment): Fluorogenic factor VIIa assay (Example 6)
Holding throughout (type): biochemical

One assay deals with T1, VIIa/Ca^2+ (Homo sapiens, UniProt P08709).
T1 construct: directly measure the enzymatic activity of factor VIIa in the presence and absence of tissue factor and phospholipid
T1 sequence (P08709 213-466 limits assumed): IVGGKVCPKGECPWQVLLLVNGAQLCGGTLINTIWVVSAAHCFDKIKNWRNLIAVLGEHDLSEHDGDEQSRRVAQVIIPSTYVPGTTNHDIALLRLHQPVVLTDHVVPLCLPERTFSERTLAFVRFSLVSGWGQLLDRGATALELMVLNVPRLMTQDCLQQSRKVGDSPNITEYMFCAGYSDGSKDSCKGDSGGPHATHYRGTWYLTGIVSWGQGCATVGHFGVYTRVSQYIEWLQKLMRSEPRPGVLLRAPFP
T1 sequence (P08709 61-212 limits assumed): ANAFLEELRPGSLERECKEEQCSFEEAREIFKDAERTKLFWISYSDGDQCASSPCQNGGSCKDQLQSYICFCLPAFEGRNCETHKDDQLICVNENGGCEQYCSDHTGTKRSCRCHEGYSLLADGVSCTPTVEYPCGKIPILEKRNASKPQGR
Conditions: HBS, 37° C., 50 nM rVIIa. The protocol: (§1) Factor VII assays were conducted in 20 mM HEPES, 150 mM NaCl, 5 mM CaCl2, pH 7.4 (HBS) at 37° C. The final volume for all reactions was 1.6 ml. 6-(Mes-D-Leu-Gly-Arg)amino-1-(N,N-diethyl)naphthalenesulfonamide was dissolved in DMSO to a stock concentration of 10 mM. This 10 mM stock solution of was diluted in HBS to final working concentration prior to all assays. For reactions involving tissue factor (TF) and phospholipid vesicles, recombinant human tissue factor was solubilized in either 0.04% n-dodecyl octaethylene glycol (C12 E8) or 0.8% octyl glucoside. The TF/n-dodecyl octaethylene glycol was then relipidated into PCPS or PC vesicles by a 30 minute incubation step as described by Lawson & Mann, J. Biol. Chem. 266: 11317-11327 (1991). TF/octyl glucoside was relipidated into PC or PCPS vesicles by a thirty minute incubation step followed by exhaustive dialysis. The final concentration of tissue factor used in the studies described here ranged from 2 to 50 nM depending on the nature of the experiment.
(§2) Fifteen minutes prior to the start of all reactions factor VIIa was added to the reaction system. This incubation period was followed by the addition of substrate (1 μM to 400 μM) to the mixture to start the reaction. In experiments designed to determine kinetic constants of substrate hydrolysis, 50 nM rVIIa was used when no tissue factor was present in the reaction system, while 0.5 nM rVIIa was used when tissue factor was present in the reaction system. The rate of substrate hydrolysis was measured by change in fluorescence over time, which corresponded with the generation of the 6-amino-1-(N,N-diethyl)naphthalenesulfonamide from the provided substrate. The kinetic constants of 6-(Mes-D-Leu-Gly-Arg)amino-1-(N,N-diethyl)naphthalenesulfonamide hydrolysis as a function of factor VIIa/tissue factor complex assembly are shown in Table 10.

Another assay concerns the target T2, VIIa/PCPS/Ca^2+ (Homo sapiens, UniProt P08709).
T2 construct: directly measure the enzymatic activity of factor VIIa in the presence and absence of tissue factor and phospholipid
T2 sequence (P08709 213-466 limits assumed): T1 sequence (P08709 213-466 limits assumed)
T2 sequence (P08709 61-212 limits assumed): T1 sequence (P08709 61-212 limits assumed)
As to conditions: HBS, 37° C., 50 nM rVIIa. The protocol:
as §1, §2

The target in another assay is T3, VIIa/TF/PC/CA^2+ (Homo sapiens, UniProt P08709).
T3 construct: directly measure the enzymatic activity of factor VIIa in the presence and absence of tissue factor and phospholipid
T3 sequence (P13726 33-295 partner, one chain of several): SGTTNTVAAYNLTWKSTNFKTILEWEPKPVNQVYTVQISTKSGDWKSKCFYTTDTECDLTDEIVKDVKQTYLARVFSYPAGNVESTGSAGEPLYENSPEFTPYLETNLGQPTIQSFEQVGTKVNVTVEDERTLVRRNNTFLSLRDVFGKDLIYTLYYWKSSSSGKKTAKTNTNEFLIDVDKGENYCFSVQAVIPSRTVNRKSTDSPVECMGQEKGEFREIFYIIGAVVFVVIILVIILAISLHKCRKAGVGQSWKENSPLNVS
Conditions: HBS, 37° C., 0.5 nM rVIIa. As for the experimental part: as §1, §2

In a further assay the target is T4, VIIa/TF/PCPS/Ca^2+ (Homo sapiens, UniProt P08709).
T4 construct: directly measure the enzymatic activity of factor VIIa in the presence and absence of tissue factor and phospholipid
T4 sequence (P13726 33-295 partner, one chain of several): as above
As to conditions: HBS, 37° C., 0.5 nM rVIIa. The protocol:
as §1, §2

`CCN(CC)S(=O)(=O)c1cccc2cc(NC(=O)[C@H](CCCNC(=N)N)NC(=O)CNC(=O)[C@@H](CC(C)C)NS(C)(=O)=O)ccc12` [MesD-LPR-ANSN(C2 H5)2, 6-(Mes-D-Leu-Gly-Arg)amino-1-(N,N-diethyl)napththalenesulfonamide]: the “kcat /Km” value at VIIa/Ca^2+ was found to be 41.4 M^-1 S^-1; at VIIa/PCPS/Ca^2+, 32.6 M^-1 S^-1; on VIIa/TF/PC/CA^2+, 4206 M^-1 S^-1; on VIIa/TF/PCPS/Ca^2+ it was 4166 M^-1 S^-1. Also, the “kcat sec^-1 ± S.E.” value at VIIa/Ca^2+ stood at 0.010 ± 0.002 s⁻¹; at VIIa/PCPS/Ca^2+, 0.019 ± 0.003 s⁻¹; at VIIa/TF/PC/CA^2+, 0.875 ± 0.032 s⁻¹; on VIIa/TF/PCPS/Ca^2+, 0.675 ± 0.046 s⁻¹. For the same compound, the Km was 249 ± 88.5 µM at VIIa/Ca^2+ (read-out: Km μM ± S.E.), 580 ± 101 µM at VIIa/PCPS/Ca^2+ (read-out: Km μM ± S.E.), 208 ± 12 µM on VIIa/TF/PC/CA^2+ (read-out: Km μM ± S.E.) and 162 ± 16 µM on VIIa/TF/PCPS/Ca^2+ (read-out: Km μM ± S.E.).
